The assay deals with Mitogen-activated protein kinase 1 (Homo sapiens, UniProt P28482). As to the kind of experiment: Assay 1.
Mitogen-activated protein kinase 1, sequence (P28482 whole entry): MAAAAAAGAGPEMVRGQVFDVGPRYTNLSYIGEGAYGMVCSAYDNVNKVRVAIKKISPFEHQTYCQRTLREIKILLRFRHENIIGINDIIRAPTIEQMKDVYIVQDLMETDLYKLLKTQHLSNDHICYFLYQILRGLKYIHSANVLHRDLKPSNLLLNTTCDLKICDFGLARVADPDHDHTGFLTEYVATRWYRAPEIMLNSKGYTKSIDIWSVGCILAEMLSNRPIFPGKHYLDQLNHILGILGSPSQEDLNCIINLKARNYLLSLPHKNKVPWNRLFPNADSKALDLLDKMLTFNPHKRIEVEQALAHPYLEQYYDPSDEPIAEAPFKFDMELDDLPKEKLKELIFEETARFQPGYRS
Compound `Cc1cc(N)ccc1Nc1ncc(C)c(-c2c[nH]c(C(=O)N[C@H](CO)c3cccc(Cl)c3)c2)n1` [erk000668] displayed a Ki of 3 nM.
With `CC[C@@H](COC(=O)COCCOC)Nc1ncc(C)c(-c2c[nH]c(C(=O)N[C@H](COC(=O)COCCOC)c3cccc(Cl)c3)c2)n1` [erk000716] the figure was 427 nM.
With `Cc1cnc(N)nc1-c1c[nH]c(C(=O)NCc2ccc3c(c2)OCO3)c1` [erk000066] the figure was 141 nM.
Turning to `Cc1cnc(NCC(C)C)nc1-c1c[nH]c(C(=O)N[C@H](CO)c2ccccc2)c1` [erk000448], the Ki turned out to be 3 nM.
For `CC[C@@H](COC(=O)[C@@H](N)C(C)(C)C)Nc1ncc(C)c(-c2c[nH]c(C(=O)N[C@H](COC(=O)[C@@H](N)C(C)(C)C)c3cccc(Cl)c3)c2)n1` [erk000714] the value was 30 nM.
Turning to `CCC(CC)Nc1ncc(C)c(-c2c[nH]c(C(=O)N[C@H](CO)c3ccccc3)c2)n1` [erk000547], the affinity corresponds to a Ki of 6 nM.
Compound `CC[C@@H](COC(C)=O)Nc1ncc(C)c(-c2c[nH]c(C(=O)N[C@H](COC(C)=O)c3cccc(Cl)c3)c2)n1` [erk000620] had a Ki of 229 nM.
The compound `Cc1cnc(NC2CC2)nc1-c1c[nH]c(C(=O)N[C@H](CO)c2cccc(C(F)(F)F)c2)c1` [erk000492] displayed a Ki of 2 nM.
With `Cc1cnc(Nc2cccc(C)c2C)nc1-c1c[nH]c(C(=O)N[C@H](CO)c2cccc(Cl)c2)c1` [erk000526] the figure was 1 nM; with `CCNc1ncc(C)c(-c2c[nH]c(C(=O)N[C@H](CO)c3cccc(C)c3)c2)n1` [erk000634], 4 nM; with `CC[C@@H](CO)Nc1cc(-c2c[nH]c(C(=O)N[C@H](CO)c3cccc(Cl)c3)c2)ncn1` [erk000673], 18 nM.
Consider `Fc1cccc(-c2cnoc2-c2c[nH]c3ncc(-c4ccncc4)cc23)c1F` [erk000712], for which the Ki was found to be 191 nM.
As to `Cc1cnc(N[C@H]2CCC[C@@H]2O)nc1-c1c[nH]c(C(=O)N[C@H](CO)c2cccc(Cl)c2)c1` [erk000613], the Ki is 35 nM.
Consider `Cc1cnc(N[C@H](C)CO)nc1-c1c[nH]c(C(=O)N[C@H](CO)c2ccccc2)c1` [erk000462], for which the Ki was 14 nM.
For `Cc1cnc(NC2Cc3ccccc3C2)nc1-c1c[nH]c(C(=O)N[C@H](CO)c2cccc(Cl)c2)c1` [erk000592] the value was 16 nM; for `Cc1cnc(NCc2ccccc2)nc1-c1c[nH]c(C(=O)N[C@H](CO)c2ccccc2)c1` [erk000439], 14 nM.
With `Cc1cnc(NCCc2ccccc2)nc1-c1c[nH]c(C(=O)N[C@H](CO)c2ccccc2)c1` [erk000578] the figure was 7 nM; with `Cc1cnc(NC2(CO)CCCC2)nc1-c1c[nH]c(C(=O)N[C@H](CO)c2ccccc2)c1` [erk000513], 51 nM; with `Cc1cnc(N)nc1-c1c[nH]c(C(=O)NCc2cc(F)cc(F)c2)c1` [erk000629], 977 nM.
Compound `CNc1ncc(C)c(-c2c[nH]c(C(=O)NCc3ccc(Cl)cc3Cl)c2)n1` [erk000054] gave a Ki of 2000 nM.
For `CNc1ncc(C)c(-c2c[nH]c(C(=O)NCc3ccc(F)c(F)c3)c2)n1` [erk000056] the value was 3720 nM; for `Cc1cnc(NC(C)(CO)CO)nc1-c1c[nH]c(C(=O)N[C@H](CO)c2ccccc2)c1` [erk000512], 6 nM; for `CCNc1nccc(-c2c[nH]c(C(=O)N[C@H](CO)c3ccccc3)c2)n1` [erk000068], 100 nM.
As to `Cc1[nH]c(C(=O)N[C@H](CO)c2cccc(Cl)c2)c(C)c1-c1ccnc(Nc2ccc(F)cc2Cl)n1` [erk000700], the Ki worked out at 9 nM.
In turn, `Cc1cnc(NCc2ccncc2)nc1-c1c[nH]c(C(=O)N[C@H](CO)c2ccccc2)c1` [erk000579] gave a Ki of 776 nM. This Ki lies about 86-fold higher than the previous one.
Take `CONc1ncc(C)c(-c2c[nH]c(C(=O)N[C@H](CO)c3ccccc3)c2)n1` [erk000493]: the affinity, expressed as Ki, was 29 nM.
As to `COC[C@H](C)Nc1ncc(C)c(-c2c[nH]c(C(=O)N[C@H](CO)c3ccccc3)c2)n1` [erk000548], the Ki turned out to be 24 nM.
The compound `CCNc1ncc(C)c(-c2c[nH]c(C(=O)N[C@@H](CCO)c3ccccc3)c2)n1` [erk000459] showed a Ki of 501 nM.
The compound `CC[C@@H](COC(=O)CCC(=O)O)Nc1ncc(C)c(-c2c[nH]c(C(=O)N[C@H](COC(=O)CCC(=O)O)c3cccc(Cl)c3)c2)n1` [erk000713] displayed a Ki of 117 nM.
`Cc1cccc(Nc2ncc(C)c(-c3c[nH]c(C(=O)N[C@H](CO)c4cccc(Cl)c4)c3)n2)n1` [erk000619] registered a Ki of 2 nM.
As to `Cc1ccccc1CNC(=O)c1cc(-c2ccnc(N)n2)c[nH]1` [erk000663], the Ki stood at 1290 nM. This Ki lies about 640-fold higher than the previous one.
In turn, `Cc1cnc(N)nc1-c1c[nH]c(C(=O)NCc2cccc(Cl)c2)c1` [erk000303] came in with a Ki of 81 nM.
With `Cc1cnc(N[C@@H](C)CO)nc1-c1cc(C(=O)N[C@H](CO)c2ccccc2)n(C)c1` [erk000706] the figure was 6 nM.
Compound `CCNc1ncc(C)c(-c2c[nH]c(C(=O)NCc3cccc(OC)c3)c2)n1` [erk000476] came in with a Ki of 52 nM.
`CCOC(=O)N1CCC(Nc2ncc(Cl)c(-c3c[nH]c(C(=O)N[C@H](CO)c4cccc(Cl)c4)c3)n2)CC1` [erk000703] showed a Ki of 7 nM.
In the case of `Cc1cccc([C@@H](CO)NC(=O)c2cc(-c3nc(N[C@H]4CCOC4)ncc3C)c[nH]2)c1` [erk000660], the Ki came out at 4 nM. This Ki is about 1.8-fold lower than that of the compound before.
`Cc1ccnc(Nc2ncc(C)c(-c3c[nH]c(C(=O)N[C@H](CO)c4ccccc4)c3)n2)c1` [erk000518] displayed a Ki of 4 nM. In other words, the single-digit nanomolar range.
With `CC(=O)OC[C@@H](NC(=O)c1cc(-c2nc(Nc3ccccc3)ncc2C)c[nH]1)c1ccccc1` [erk000646] the figure was 38 nM; with `CCNc1ncc(C)c(-c2c[nH]c(C(=O)NCc3ccccc3OC)c2)n1` [erk000475], 468 nM; with `Cc1cnc(NC[C@H]2CCCO2)nc1-c1c[nH]c(C(=O)N[C@H](CO)c2ccccc2)c1` [erk000497], 14 nM.
As to `CCN(C)C(=O)c1cc(-c2[nH]ncc2-c2ccc(F)c(Cl)c2)c[nH]1` [erk000142], the affinity, expressed as Ki, was 251 nM.
As for `Cc1ccc(Nc2ncc(C)c(-c3c[nH]c(C(=O)N[C@H](CO)c4ccccc4)c3)n2)cc1Br` [erk000563], the Ki was 3 nM.
Compound `Cc1cccc([C@@H](CO)NC(=O)c2cc(-c3nc(NC4CCOCC4)ncc3C)c[nH]2)c1` [erk000602] gave a Ki of 3 nM.
For the compound `CC[C@@H](COC(=O)C(C)(C)C)Nc1ncc(C)c(-c2c[nH]c(C(=O)N[C@H](CO)c3cccc(Cl)c3)c2)n1` [erk000702], affinity was put at a Ki of 55 nM.
Take `Cc1cnc(Nc2cccc3c2CCC3)nc1-c1c[nH]c(C(=O)N[C@H](CO)c2ccccc2)c1` [erk000556]: the Ki stood at 3 nM.
On to `COc1cccc(Nc2ncc(C)c(-c3c[nH]c(C(=O)N[C@H](CO)c4ccccc4)c3)n2)c1C` [erk000531], for which the Ki turned out to be 79 nM. Against the preceding compound, the Ki is about 26-fold higher.
Consider `CCNc1ncc(C)c(-c2c[nH]c(C(=O)N[C@H](CO)c3cccc(Cl)c3)c2)n1` [erk000635], for which affinity was put at a Ki of 4 nM.
As for `Cc1cnc(NN2CCN(C)CC2)nc1-c1c[nH]c(C(=O)N[C@H](CO)c2cccc(Cl)c2)c1` [erk000641], the affinity corresponds to a Ki of 20 nM.
Consider `Cc1cnc(N)nc1-c1c[nH]c(C(=O)NCc2ccccc2)c1` [erk000103], for which the Ki worked out at 832 nM.
For `CCNc1ncc(C)c(-c2c[nH]c(C(=O)N[C@@H](CO)c3cccc(F)c3)c2)n1` [erk000479], the Ki was determined as 9 nM.
In the case of `CC(=O)Nc1ncc(C)c(-c2c[nH]c(C(=O)N[C@H](CO)c3ccccc3)c2)n1` [erk000496], the affinity corresponds to a Ki of 32 nM.
Take `Cc1cnc(Nc2cccc3c2OC(F)(F)O3)nc1-c1c[nH]c(C(=O)N[C@H](CO)c2ccccc2)c1` [erk000591]: the Ki was 8 nM.
In the case of `N#Cc1c(NCCN2CCCCC2)sc(-c2ccnc(Nc3cccc(O)c3)n2)c1-c1cccc(Cl)c1` [erk000594], the Ki was 27 nM.
Compound `CCNc1ncc(C)c(-c2c[nH]c(C(=O)NCc3ccc(O)c(O)c3)c2)n1` [erk000485] yielded a Ki of 427 nM. Against the preceding compound, the Ki is about 16-fold higher.
For `Cc1cnc(Nn2cccc2)nc1-c1c[nH]c(C(=O)N[C@H](CO)c2ccccc2)c1` [erk000573] the value was 9 nM; for `Cc1cnc(NN2CCCCC2)nc1-c1c[nH]c(C(=O)N[C@H](CO)c2cccc(Cl)c2)c1` [erk000621], 5 nM; for `CCSc1ncc(C)c(-c2c[nH]c(C(=O)N[C@H](CO)c3ccccc3)c2)n1` [erk000544], 65 nM.
For `Cc1cnc(NOCCO)nc1-c1c[nH]c(C(=O)N[C@H](CO)c2ccccc2)c1` [erk000504] the value was 18 nM.
As to `CCOC(=O)OC[C@H](CC)Nc1ncc(C)c(-c2c[nH]c(C(=O)N[C@H](CO)c3cccc(Cl)c3)c2)n1` [erk000669], the Ki came to 27 nM.
Regarding `CCONc1ncc(C)c(-c2c[nH]c(C(=O)N[C@H](CO)c3cccc(C)c3)c2)n1` [erk000599], the affinity corresponds to a Ki of 3 nM.
`CC[C@@H](COC(=O)[C@H](CC(C)C)NC)Nc1ncc(C)c(-c2c[nH]c(C(=O)N[C@H](COC(=O)[C@H](CC(C)C)NC)c3cccc(Cl)c3)c2)n1` [erk000719] yielded a Ki of 525 nM.
With `CC[C@@H](COC(C)=O)Nc1ncc(C)c(-c2c[nH]c(C(=O)N[C@H](CO)c3cccc(Cl)c3)c2)n1` [erk000666] the figure was 6 nM.
With `Cc1cccc([C@@H](CO)NC(=O)c2cc(-c3nc(Nc4ccccn4)ncc3C)c[nH]2)c1` [erk000603], the affinity, expressed as Ki, was 9 nM.
For `Cc1cnc(N[C@H](CO)CC(C)C)nc1-c1c[nH]c(C(=O)N[C@H](CO)c2ccccc2)c1` [erk000514] the value was 9 nM; for `CCOP(=O)(OCC)OC[C@H](CC)Nc1ncc(C)c(-c2c[nH]c(C(=O)N[C@H](CO)c3cccc(Cl)c3)c2)n1` [erk000690], 1100 nM.
In the case of `CCNc1ncc(C)c(-c2c[nH]c(C(=O)NCc3ccccc3F)c2)n1` [erk000473], the affinity corresponds to a Ki of 794 nM.
Take `Cc1csc(Nc2ncc(C)c(-c3c[nH]c(C(=O)N[C@H](CO)c4cccc(Cl)c4)c3)n2)n1` [erk000652]: the Ki came to 4 nM.
`Cc1cnc(Nc2ccccc2)nc1-c1c[nH]c(C(=O)N[C@H](COC(=O)[C@@H](N)C(C)C)c2ccccc2)c1` [erk000637]: affinity was put at a Ki of 380 nM.
In turn, `Cc1cnc(NC(C)C)nc1-c1c[nH]c(C(=O)N[C@H](CO)c2cccc(F)c2)c1` [erk000536] had a Ki of 15 nM.
As for `Cc1cnc(NC2CCCCC2)nc1-c1c[nH]c(C(=O)N[C@H](CO)c2ccccc2)c1` [erk000534], the affinity, expressed as Ki, was 2 nM.

Values taken from BindingDB's records for aid1799744 (Csar, 2012).
